The record followed here is patent US20250002489A1, “BIFUNCTIONAL COMPOUNDS FOR DEGRADING ITK VIA UBIQUITIN PROTEOSOME PATHWAY” (NURIX THERAPEUTICS, INC., priority 2021, published 2025).

Data set [1] deals with T1, ITK (Jurkat or Molt4 cells) (Homo sapiens, UniProt Q08881).
T1 construct: either human Jurkat (Clone E6-1 ATCC TIB-152) or Motl4 (ATCC CRL-1552), were plated; endogenous in cells; host or cells: Jurkat Clone E6-1 (ATCC TIB-152) or Molt4 (ATCC CRL-1552)
T1 sequence (Q08881 1-620): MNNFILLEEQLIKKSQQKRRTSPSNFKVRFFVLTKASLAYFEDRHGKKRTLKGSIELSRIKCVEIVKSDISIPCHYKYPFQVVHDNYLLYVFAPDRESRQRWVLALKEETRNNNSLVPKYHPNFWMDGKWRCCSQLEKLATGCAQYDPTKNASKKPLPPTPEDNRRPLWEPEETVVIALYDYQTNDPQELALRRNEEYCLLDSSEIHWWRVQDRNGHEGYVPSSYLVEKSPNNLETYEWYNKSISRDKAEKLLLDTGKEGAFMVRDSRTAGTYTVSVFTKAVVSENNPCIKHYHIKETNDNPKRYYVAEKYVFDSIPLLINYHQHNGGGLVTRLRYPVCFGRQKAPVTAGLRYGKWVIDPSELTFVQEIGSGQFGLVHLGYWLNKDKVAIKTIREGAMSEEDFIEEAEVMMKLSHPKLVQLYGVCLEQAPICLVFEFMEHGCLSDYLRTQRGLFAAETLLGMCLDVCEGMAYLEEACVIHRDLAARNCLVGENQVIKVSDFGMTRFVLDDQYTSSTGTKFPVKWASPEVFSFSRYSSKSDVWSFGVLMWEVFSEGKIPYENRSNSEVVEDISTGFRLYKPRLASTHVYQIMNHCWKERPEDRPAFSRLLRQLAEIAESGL
Kind of data set: ITK Degradation MSD (Meso Scale Discovery) Assay. Type of data set: cell-based. The conditions noted are these: 4 or 6 hrs incubation; for DC50: best fit IC50 used as DC50. In a few lines: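 Jurkat or Molt4 cells at 1×10^6 cells/mL in RPMI/10% FBS treated 4 or 6 hr at 32° C with 7-point, 5-fold compound dilutions (0.5% DMSO). Lysate ITK quantified by MSD sandwich ECL immunoassay; % ITK remaining fitted by four-parameter curve, IC50 taken as DC50, plus Dmax.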

The nature of data set [2]: Mouse PK analysis, plasma concentration by LC/MS/MS after oral administration. The data set is classed as in vivo. The conditions noted are these: mice. On the procedure:
Mouse PK Analysis Compounds 17 and 18 were administered to mice orally. After six hours or twenty-four hours, splenocyte cells were harvested. ITK was evaluated by Western blotting. Plasma concentrations were determined by LC/MS/MS. Plasma samples were protein precipitated by addition of 100 μl of acetonitrile containing 50 ng/ml of internal standard. The resulting mixture was vortexed and centrifuged at 4000 rpm for five minutes. An aliquot of the resultant supernatant (75 μl) was added to 75 μl of 0.1% formic acid in water to constitute the final sample for injection. Samples were injected on a Shimadzu Exion LC Binary Gradient AD Pump HLPC system connected to a Sciex QTRAP 6500+ mass spectrometer. 5 μL of sample was injected onto a Waters Acquity UPLC BEH C18 column 130A (2.1×30 mm, […]) at 40° C. utilizing a flow rate of 700 μL/minute.
Mobile Phase A was 0.1% formic acid in water and mobile phase B was 0.1% formic acid in acetonitrile. A linear gradient of 15-95% B over 1.0 minute was used. The mass spectrometer was operated in positive ion electrospray mode with multiple reaction monitoring for maximum sensitivity. Sciex Analyst software (version 1.6.3) was used for LC/MS/MS instrument control and acquisition. Compound concentration was determined against a standard curve of internal standard versus compound peak area ratio. Noncompartmental PK parameters were determined using Phoenix 32 software (version 8.2.0.4383) from Certara. Plasma concentrations from the LC/MS/MS analyses, dose, route of administration, and desired units were utilized for PK parameter calculations.

In data set [3] the target is T2, ITK (C-terminal HiBiT-tagged Molt4 cells) (Homo sapiens, UniProt Q08881).
T2 construct: expressed in transfected cells; host or cells: Molt4 (ATCC CRL-1552), monoclonal clone 1C10, engineered to express HiBiT-tagged ITK
T2 sequence (Q08881 1-620): T1 sequence (Q08881 1-620)
Put plainly: ITK Degradation HiBiT Assay. Type of data set: cell-based. The conditions noted are these: for DC50: 4 hrs incubation, best fit IC50 used as DC50; for Dmax: MOLT-4, 4 hrs incubation. On the procedure: Compounds provided herein were assayed in vitro with ITK HiBit cell lines. Compound dilution series (11-point, 5-fold dilutions in DMSO, columns 2-12 with replicate in rows A/B, C/D, E/F, G, and H at 2000× the final required concentrations were prepared in 96-well plate (Falcon, cat. no. 353077). Column 1, rows A-H were control DMSO. The 2000× solutions ranged from 2 mM to 1.024 nM (final assay concentration range 1 μM to 0.512 pM). The 2000×solutions were added to cells in 10 μL volume, for a final DMSO concentration of 0.5% and final assay compound concentration of 1×. For the cells, C-terminal HiBiT-tagged Molt4 cells (ATCC CRL-1552, monoclonal cell line clone 1C10) were plated at 1×10^6 cells/mL, 100 μL/well ([…]) in complete RPMI (10% FBS, 1% L-glutamine). The cells were incubated with compounds 1-25, 31, and 31 for 4 hrs at 32° C./6% CO2.
Following incubation, 100 μL of complete Nano-Glo HiBiT Lytic Detection Reagent (Nano-Glo HiBiT Lytic Buffer with 1:50 Nano-Glo HiBiT Lytic Substrate and 1:100 LgBiT Protein; Promega cat. no. N3O40) was added. Cells were further incubated for 10 min at room temperature. Luminescence units (LU) were read on an EnVision plate reader (Perkin Elmer, 0.1 sec per well). Percent ITK remaining per sample was calculated as follows: […]
Using Graphpad Prism, % ITK remaining values were plotted as a function of compound concentration. To determine DC50 and Dmax values, resulting curves were fit to the Prism curve-fitting equation “log(inhibitor) vs response−Variable slope (four parameters)” (reported best fit value IC50 used as DC50). ITK was measured with antibody-based MSD (Meso-Scale Discovery) assays shown below.
On the technique in general: With HiBiT, luminescence reflects the tagged protein that the partner subunit can reach.

SMILES strings stand for the structures.

As a reminder, the Dmax is the greatest extent of degradation seen. A high value points to a fuller loss of target. The DC50 is the concentration at which degradation of the target reaches its halfway point. A low value points to a more potent degrader. In data set [1], `Cc1ncsc1-c1ccc(CNC(=O)[C@@H]2C[C@@H](O)CN2C(=O)[C@@H](NC(=O)C2(F)CC2)C(C)(C)C)c(OCCOCCC(=O)N2CC([C@@H](c3ccccc3)n3cc(NC(=O)c4n[nH]c5c4C[C@@H]4C(F)(F)[C@]4(C)C5)cn3)C2)c1` [Compound 17, (4aS,5aR)-5,5-difluoro-N-(1-((S)-(1-(3-(2-(2-(((2S,4R)-1-((S)-2-(1-fluorocyclopropane-1-carboxamido)-3,3-dimethylbutanoyl)-4-hydroxypyrrolidine-2-carboxamido)methyl)-5-(4-methylthiazol-5-yl)phenoxy)ethoxy)propanoyl)azetidin-3-yl)(phenyl)methyl)-1H-pyrazol-4-yl)-5a-methyl-1,4,4a,5,5a,6-hexahydrocyclopropa[f]indazole-3-carboxamide] returned a Dmax of 95.7% and a DC50 of 4.51 nM. In addition, the concentration at 2 h in data set [2] (timepoint 2 h) was found to be 1.8 nM. Moreover, in data set [2] (timepoint 6 h), the concentration at 6 h was determined as 4.5 nM. As for `Cc1ncsc1-c1ccc([C@H](C)NC(=O)[C@@H]2C[C@@H](O)CN2C(=O)[C@@H](NC(=O)CCN2CCC(CCC(=O)N3CC([C@@H](c4ccccc4)n4cc(NC(=O)c5n[nH]c6c5C[C@@H]5C(F)(F)[C@]5(C)C6)cn4)C3)CC2)C(C)(C)C)cc1` [Compound 26, (4aS,5aR)-5,5-difluoro-N-(1-((S)-(1-(3-(1-(3-(((S)-1-((2S,4R)-4-hydroxy-2-(((S)-1-(4-(4-methylthiazol-5-yl)phenyl)ethyl)carbamoyl)pyrrolidin-1-yl)-3,3-dimethyl-1-oxobutan-2-yl)amino)-3-oxopropyl)piperidin-4-yl)propanoyl)azetidin-3-yl)(phenyl)methyl)-1H-pyrazol-4-yl)-5a-methyl-1,4,4a,5,5a,6-hexahydrocyclopropa[f]indazole-3-carboxamide], in data set [3], the DC50 is 6.61 nM. `Cc1ncsc1-c1ccc([C@H](C)NC(=O)[C@@H]2C[C@@H](O)CN2C(=O)[C@@H](NC(=O)CCCCCCCCCC(=O)N2CC([C@@H](c3ccccc3)n3cc(NC(=O)c4n[nH]c5c4C[C@@H]4C(F)(F)[C@]4(C)C5)cn3)C2)C(C)(C)C)cc1` [Compound 27, (4aS,5aR)-5,5-difluoro-N-(1-((S)-(1-(11-(((S)-1-((2S,4R)-4-hydroxy-2-(((S)-1-(4-(4-methylthiazol-5-yl)phenyl)ethyl)carbamoyl)pyrrolidin-1-yl)-3,3-dimethyl-1-oxobutan-2-yl)amino)-11-oxoundecanoyl)azetidin-3-yl)(phenyl)methyl)-1H-pyrazol-4-yl)-5a-methyl-1,4,4a,5,5a,6-hexahydrocyclopropa[f]indazole-3-carboxamide] displayed a Dmax in data set [3] of 35%. In data set [3], `Cc1ncsc1-c1ccc([C@H](C)NC(=O)[C@@H]2C[C@@H](O)CN2C(=O)[C@@H](NC(=O)CCCCCCCC(=O)N2CC([C@@H](c3ccccc3)n3cc(NC(=O)c4n[nH]c5c4C[C@@H]4C(F)(F)[C@]4(C)C5)cn3)C2)C(C)(C)C)cc1` [Compound 28, (4aS,5aR)-5,5-difluoro-N-(1-((S)-(1-(9-(((S)-1-((2S,4R)-4-hydroxy-2-(((S)-1-(4-(4-methylthiazol-5-yl)phenyl)ethyl)carbamoyl)pyrrolidin-1-yl)-3,3-dimethyl-1-oxobutan-2-yl)amino)-9-oxononanoyl)azetidin-3-yl)(phenyl)methyl)-1H-pyrazol-4-yl)-5a-methyl-1,4,4a,5,5a,6-hexahydrocyclopropa[f]indazole-3-carboxamide] registered a DC50 of 1.41 nM and a Dmax of 91%. The matching figures for `Cc1ncsc1-c1ccc([C@H](C)NC(=O)[C@@H]2C[C@@H](O)CN2C(=O)[C@@H](NC(=O)CCCCCC(=O)N2CC([C@@H](c3ccccc3)n3cc(NC(=O)c4n[nH]c5c4C[C@@H]4C(F)(F)[C@]4(C)C5)cn3)C2)C(C)(C)C)cc1` [Compound 29, (4aS,5aR)-5,5-difluoro-N-(1-((S)-(1-(7-(((S)-1-((2S,4R)-4-hydroxy-2-(((S)-1-(4-(4-methylthiazol-5-yl)phenyl)ethyl)carbamoyl)pyrrolidin-1-yl)-3,3-dimethyl-1-oxobutan-2-yl)amino)-7-oxoheptanoyl)azetidin-3-yl)(phenyl)methyl)-1H-pyrazol-4-yl)-5a-methyl-1,4,4a,5,5a,6-hexahydrocyclopropa[f]indazole-3-carboxamide]: 19.7 nM and 84%.

Turning to `Cc1ncsc1-c1ccc(CNC(=O)[C@@H]2C[C@@H](O)CN2C(=O)[C@@H](NC(=O)C2(F)CC2)C(C)(C)C)c(OCCCCC(=O)N2CC([C@@H](c3ccccc3)n3cc(NC(=O)c4n[nH]c5c4C[C@@H]4C(F)(F)[C@]4(C)C5)cn3)C2)c1` [Compound 34, (4aS,5aR)-5,5-difluoro-N-(1-((S)-(1-(5-(2-(((2S,4R)-1-((S)-2-(1-fluorocyclopropane-1-carboxamido)-3,3-dimethylbutanoyl)-4-hydroxypyrrolidine-2-carboxamido)methyl)-5-(4-methylthiazol-5-yl)phenoxy)pentanoyl)azetidin-3-yl)(phenyl)methyl)-1H-pyrazol-4-yl)-5a-methyl-1,4,4a,5,5a,6-hexahydrocyclopropa[f]indazole-3-carboxamide], in data set [1], the Dmax came out at 94% and it took 10.8 nM to reach half-maximal degradation (DC50). `Cc1ncsc1-c1ccc(CNC(=O)[C@@H]2C[C@@H](O)CN2C(=O)[C@@H](NC(=O)C2(F)CC2)C(C)(C)C)c(OC2CN(c3ccnc(N4CC([C@@H](c5ccccc5)n5cc(NC(=O)c6n[nH]c7c6C[C@@H]6C(F)(F)[C@]6(C)C7)cn5)C4)c3)C2)c1` [Compound 35, (4aS,5aR)-5,5-difluoro-N-(1-((S)-(1-(4-(3-(2-(((2S,4R)-1-((S)-2-(1-fluorocyclopropane-1-carboxamido)-3,3-dimethylbutanoyl)-4-hydroxypyrrolidine-2-carboxamido)methyl)-5-(4-methylthiazol-5-yl)phenoxy)azetidin-1-yl)pyridin-2-yl)azetidin-3-yl)(phenyl)methyl)-1H-pyrazol-4-yl)-5a-methyl-1,4,4a,5,5a,6-hexahydrocyclopropa[f]indazole-3-carboxamide] displayed a Dmax in data set [3] of 35%.
